{"source": "ChEMBL document CHEMBL1155268", "about": "“Synthesis of amyloid beta peptide 1-42 (E22Delta) click peptide: pH-triggered in situ production of its native form” (Bioorg Med Chem, 2009)", "assay": "Solubility in water by HPLC", "assay_type": "physicochemical", "data": [{"smiles": "CC[C@H](C)[C@H](NC(=O)[C@H](C)NC(=O)CNC(=O)[C@H](CCCCN)NC(=O)[C@H](CC(N)=O)NC(=O)[C@H](CO)NC(=O)CNC(=O)[C@@H](NC(=O)[C@H](CC(=O)O)NC(=O)[C@H](C)NC(=O)[C@H](Cc1ccccc1)NC(=O)[C@H](Cc1ccccc1)NC(=O)[C@@H](NC(=O)[C@H](CC(C)C)NC(=O)[C@H](CCCCN)NC(=O)[C@H](CCC(N)=O)NC(=O)[C@H](Cc1cnc[nH]1)NC(=O)[C@H](Cc1cnc[nH]1)NC(=O)[C@@H](NC(=O)[C@H](CCC(=O)O)NC(=O)[C@H](Cc1ccc(O)cc1)NC(=O)CNC(=O)[C@H](CO)NC(=O)[C@H](CC(=O)O)NC(=O)[C@H](Cc1cnc[nH]1)NC(=O)[C@H](CCCNC(=N)N)NC(=O)[C@H](Cc1ccccc1)NC(=O)[C@H](CCC(=O)O)NC(=O)[C@H](C)NC(=O)[C@@H](N)CC(=O)O)C(C)C)C(C)C)C(C)C)C(=O)N[C@H](C(=O)NCC(=O)N[C@@H](CC(C)C)C(=O)N[C@@H](CCSC)C(=O)N[C@H](C(=O)NCC(=O)NCC(=O)N[C@H](C(=O)N[C@H](C(=O)N[C@H](C(=O)N[C@@H](C)C(=O)O)[C@@H](C)CC)C(C)C)C(C)C)C(C)C)[C@@H](C)CC", "values": [{"measurement": "solubility", "value": 1500, "unit": "µg/mL"}]}]}
